Laboratory results reported in patent US11541029B2, “High penetration compositions and their applications” (Techfields Pharma Co., Ltd., priority 2008, dated 2023).

Key:
[1] = tested on: GK rats (SLAC/GK, type 2 diabetes); assay: Anti-diabetes (type II) activity of HPCs of NSAIAs in GK rats; format: in vivo; conditions: 30 mg/kg transdermally once per day, no fasting
How it was run: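 GK (type 2 diabetic) and normal SD rats, 14-16 weeks old, n=7, received 30 mg/kg test compound in 25% ethanol transdermally on a 6 cm^2 shaved back area once daily at 8 am for 6 weeks. Non-fasting blood glucose was measured at 4:30 pm every 3 days from week 3 to week 6.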

SLAC/MRL/LPR mice = assay: Lupus in MRL/LPR mice treated from 16 weeks old, 30 mg/kg (10% aq.) on back skin twice per day; format: in vivo
Description: . Progression of lupus was monitored once a week by measurement of hematuria, body weight and survival rate. The experiments were carried out in two groups of mice. One group of mice were 8 weeks old and had not shown SLE characteristics (Table 26a). The other group of mice were 16 weeks old, and had shown SLE characteristics (Table 26b).

[2] = Distribution in organs of rats killed with CO2 (absence of general circulation); conditions: 5 hrs after 0.3 mmol/kg diethylaminoethyl acetylsalicylate HCl salt on back of killed rats;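 note: tissue concentration in nmol/g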
Description: 0.3 mmol/kg of diethylaminoethyl acetylsalicylate HCl salt (10% in pure water) was applied to the back of rats (10 cm^2) which were killed with CO2. The rats were shaken for 5 hrs, then the HPCs and parent drugs in organs of rats were determined.

SMILES: CCN(CC)CCOC(=O)c1ccccc1OC(C)=O.Cl [P-1, diethylaminoethyl acetylsalicylate.HCl salt]
- blood glucose, Average (Week 2-5) [1]: 6.4 ± 2.4 mmol/L
- blood glucose, Day 1 [1]: 17.1 ± 2.8 mmol/L
- Body Weight (SLAC/MRL/LPR mice; week 16): 42.6 ± 2.1 g
- Hematuria (0-4) (SLAC/MRL/LPR mice; week 16): 1.70 ± 0.26
- Survival Rate (SLAC/MRL/LPR mice; week 16): 10/10
- Body Weight (SLAC/MRL/LPR mice; week 17): 44.2 ± 2.0 g
- Hematuria (0-4) (SLAC/MRL/LPR mice; week 17): 1.50 ± 0.17
- Survival Rate (SLAC/MRL/LPR mice; week 17): 10/10
- Body Weight (SLAC/MRL/LPR mice; week 18): 46.6 ± 2.4 g
- Hematuria (0-4) (SLAC/MRL/LPR mice; week 18): 1.30 ± 0.15
- Survival Rate (SLAC/MRL/LPR mice; week 18): 10/10
- Body Weight (SLAC/MRL/LPR mice; week 19): 47.9 ± 2.5 g
- Hematuria (0-4) (SLAC/MRL/LPR mice; week 19): 0.80 ± 0.13
- Survival Rate (SLAC/MRL/LPR mice; week 19): 10/10
- Body Weight (SLAC/MRL/LPR mice; week 20): 46.8 ± 2.0 g
- Hematuria (0-4) (SLAC/MRL/LPR mice; week 20): 0.80 ± 0.13
- Survival Rate (SLAC/MRL/LPR mice; week 20): 10/10
- Body Weight (SLAC/MRL/LPR mice; week 21): 47.2 ± 2.2 g
- Hematuria (0-4) (SLAC/MRL/LPR mice; week 21): 0.80 ± 0.13
- Survival Rate (SLAC/MRL/LPR mice; week 21): 10/10
- Body Weight (SLAC/MRL/LPR mice; week 22): 47.6 ± 1.9 g
- Hematuria (0-4) (SLAC/MRL/LPR mice; week 22): 0.80 ± 0.20
- Survival Rate (SLAC/MRL/LPR mice; week 22): 10/10
- Body Weight (SLAC/MRL/LPR mice; week 23): 47.1 ± 2.3 g
- Hematuria (0-4) (SLAC/MRL/LPR mice; week 23): 0.80 ± 0.20
- Survival Rate (SLAC/MRL/LPR mice; week 23): 10/10
- Body Weight (SLAC/MRL/LPR mice; week 24): 46.8 ± 2.1 g
- Hematuria (0-4) (SLAC/MRL/LPR mice; week 24): 0.80 ± 0.20
- Survival Rate (SLAC/MRL/LPR mice; week 24): 10/10
- Body Weight (SLAC/MRL/LPR mice; week 25): 47.2 ± 2.0 g
- Hematuria (0-4) (SLAC/MRL/LPR mice; week 25): 0.70 ± 0.15
- Survival Rate (SLAC/MRL/LPR mice; week 25): 10/10
- Body Weight (SLAC/MRL/LPR mice; week 26): 46.9 ± 2.6 g
- Hematuria (0-4) (SLAC/MRL/LPR mice; week 26): 0.70 ± 0.15
- Survival Rate (SLAC/MRL/LPR mice; week 26): 10/10
- Body Weight (SLAC/MRL/LPR mice; week 27): 47.3 ± 2.0 g
- Hematuria (0-4) (SLAC/MRL/LPR mice; week 27): 0.60 ± 0.22
- Survival Rate (SLAC/MRL/LPR mice; week 27): 10/10
- Body Weight (SLAC/MRL/LPR mice; week 28): 47.6 ± 2.4 g
- Hematuria (0-4) (SLAC/MRL/LPR mice; week 28): 0.70 ± 0.15
- Survival Rate (SLAC/MRL/LPR mice; week 28): 10/10
- Body Weight (SLAC/MRL/LPR mice; week 29): 47.2 ± 2.5 g
- Hematuria (0-4) (SLAC/MRL/LPR mice; week 29): 0.70 ± 0.15
- Survival Rate (SLAC/MRL/LPR mice; week 29): 10/10
- Body Weight (SLAC/MRL/LPR mice; week 30): 46.4 ± 2.1 g
- Hematuria (0-4) (SLAC/MRL/LPR mice; week 30): 0.60 ± 0.22
- Survival Rate (SLAC/MRL/LPR mice; week 30): 10/10
- Body Weight (SLAC/MRL/LPR mice; week 31): 47.1 ± 2.2 g
- Hematuria (0-4) (SLAC/MRL/LPR mice; week 31): 0.80 ± 0.20
- Survival Rate (SLAC/MRL/LPR mice; week 31): 10/10
- Body Weight (SLAC/MRL/LPR mice; week 32): 46.6 ± 2.4 g
- Hematuria (0-4) (SLAC/MRL/LPR mice; week 32): 0.70 ± 0.15
- Survival Rate (SLAC/MRL/LPR mice; week 32): 10/10
- Body Weight (SLAC/MRL/LPR mice; week 33): 47.3 ± 2.1 g
- Hematuria (0-4) (SLAC/MRL/LPR mice; week 33): 0.50 ± 0.17
- Survival Rate (SLAC/MRL/LPR mice; week 33): 10/10
- Body Weight (SLAC/MRL/LPR mice; week 34): 47.6 ± 2.0 g
- Hematuria (0-4) (SLAC/MRL/LPR mice; week 34): 0.70 ± 0.15
- Survival Rate (SLAC/MRL/LPR mice; week 34): 10/10
- Body Weight (SLAC/MRL/LPR mice; week 35): 47.2 ± 2.0 g
- Hematuria (0-4) (SLAC/MRL/LPR mice; week 35): 0.70 ± 0.15
- Survival Rate (SLAC/MRL/LPR mice; week 35): 10/10
- Body Weight (SLAC/MRL/LPR mice; week 36): 46.9 ± 2.1 g
- Hematuria (0-4) (SLAC/MRL/LPR mice; week 36): 0.50 ± 0.17
- Survival Rate (SLAC/MRL/LPR mice; week 36): 10/10
- Body Weight (SLAC/MRL/LPR mice; week 37): 47.4 ± 2.7 g
- Hematuria (0-4) (SLAC/MRL/LPR mice; week 37): 0.70 ± 0.15
- Survival Rate (SLAC/MRL/LPR mice; week 37): 10/10
- Body Weight (SLAC/MRL/LPR mice; week 38): 46.9 ± 2.3 g
- Hematuria (0-4) (SLAC/MRL/LPR mice; week 38): 0.60 ± 0.22
- Survival Rate (SLAC/MRL/LPR mice; week 38): 10/10
- Body Weight (SLAC/MRL/LPR mice; week 39): 47.2 ± 2.0 g
- Hematuria (0-4) (SLAC/MRL/LPR mice; week 39): 0.50 ± 0.17
- Survival Rate (SLAC/MRL/LPR mice; week 39): 10/10
- Body Weight (SLAC/MRL/LPR mice; week 40): 47.6 ± 2.3 g
- Hematuria (0-4) (SLAC/MRL/LPR mice; week 40): 0.70 ± 0.15
- Survival Rate (SLAC/MRL/LPR mice; week 40): 10/10
- Body Weight (SLAC/MRL/LPR mice; week 41): 47.7 ± 2.2 g
- Hematuria (0-4) (SLAC/MRL/LPR mice; week 41): 0.60 ± 0.22
- Survival Rate (SLAC/MRL/LPR mice; week 41): 10/10
- Body Weight (SLAC/MRL/LPR mice; week 42): 46.9 ± 2.0 g
- Hematuria (0-4) (SLAC/MRL/LPR mice; week 42): 0.70 ± 0.15
- Survival Rate (SLAC/MRL/LPR mice; week 42): 10/10
- Body Weight (SLAC/MRL/LPR mice; week 43): 47.5 ± 2.8 g
- Hematuria (0-4) (SLAC/MRL/LPR mice; week 43): 0.60 ± 0.22
- Survival Rate (SLAC/MRL/LPR mice; week 43): 10/10
- Body Weight (SLAC/MRL/LPR mice; week 44): 47.6 ± 2.0 g
- Hematuria (0-4) (SLAC/MRL/LPR mice; week 44): 0.70 ± 0.15
- Survival Rate (SLAC/MRL/LPR mice; week 44): 10/10
- Body Weight (SLAC/MRL/LPR mice; week 45): 47.9 ± 2.5 g
- Hematuria (0-4) (SLAC/MRL/LPR mice; week 45): 0.50 ± 0.17
- Survival Rate (SLAC/MRL/LPR mice; week 45): 10/10
- Body Weight (SLAC/MRL/LPR mice; week 46): 47.6 ± 2.4 g
- Hematuria (0-4) (SLAC/MRL/LPR mice; week 46): 0.70 ± 0.15
- Survival Rate (SLAC/MRL/LPR mice; week 46): 10/10
- Body Weight (SLAC/MRL/LPR mice; week 47): 47.3 ± 2.8 g
- Hematuria (0-4) (SLAC/MRL/LPR mice; week 47): 0.60 ± 0.22
- Survival Rate (SLAC/MRL/LPR mice; week 47): 10/10
- Body Weight (SLAC/MRL/LPR mice; week 48): 46.6 ± 2.8 g
- Hematuria (0-4) (SLAC/MRL/LPR mice; week 48): 0.50 ± 0.17
- Survival Rate (SLAC/MRL/LPR mice; week 48): 10/10
- Body Weight (SLAC/MRL/LPR mice; week 49): 46.9 ± 2.1 g
- Hematuria (0-4) (SLAC/MRL/LPR mice; week 49): 0.60 ± 0.22
- Survival Rate (SLAC/MRL/LPR mice; week 49): 10/10
- Body Weight (SLAC/MRL/LPR mice; week 50): 47.1 ± 2.7 g
- Hematuria (0-4) (SLAC/MRL/LPR mice; week 50): 0.50 ± 0.17
- Survival Rate (SLAC/MRL/LPR mice; week 50): 10/10
- concentration in Leg muscle [2]: 5.2 ± 3.2 nmol/g
- concentration in kidney [2]: 3.1 ± 1.4 nmol/g
- concentration in liver [2]: 1.2 ± 1.1 nmol/g
- concentration in pancreas [2]: 2.7 ± 1.3 nmol/g
- concentration in stomach [2]: 4.3 ± 1.1 nmol/g
